A word on the melting point: it is the temperature, or range, at which the solid turns liquid.

The results in this text go back to PMC9268168, “Novel Nitric Oxide Donor Dinitroazetidine-Coumarin Hybrids as Potent Anti-Intrahepatic Cholangiocarcinoma Agents” (Molecules, 2022).

Data set [1] concerns RBE cells. The experiment in a line: Intracellular NO measurement with fluorescent probe DAF-FM DA (flow cytometry). Type of data set: cell-based, human. The settings on record: 2 μM, 2.5 h; for MFI (fold of RRx-001), intracellular NO: DAF-FM DA. Here is the method: Intracellular NO was measured with 3-amino,4-aminomethyl-2′,7′-diflfluorescein, diacetate (DAF-FM DA, Beyotime, Shanghai, China). In detail, RBE cells in the logarithmic growth phase were collected and spread on 6-well plate at a density of 150,000 per well overnight. The adherent cells were pretreated with 5 μM DAF-FM DA at 37 °C for 20 min and then incubated with RRx-001, compounds 2–6 and 21 for 2.5 h, followed by flow cytometer analysis (BD Accuri C6, Shanghai, China). Cells were washed three times with cold PBS between each step. The experiment was performed three times.
On the technique in general: In flow cytometry, cells or beads pass a laser one at a time.

Data set [2] deals with RBE cell lines. The data set is described as follows: cells. Particulars: Homo sapiens, 48 h, read-out: IC50, antiproliferation activities in RBE.
Experimental: Tested compounds were dissolved into DMSO (Sigma-Aldrich, Shanghai, China) to prepare a solution with concentration of 2 mM for use.
The in vitro antiproliferation of the chemical compounds was measured by the MTT reagent, as described in the literature. Briefly, 4000–6000 cells in 100 μL of medium per well were plated in 96-well plates. […] At the same time, blank group without adding cells was set. […] Last, the MTT-containing medium was discarded and 150 μL of DMSO per well was added to dissolve the formazan crystals newly formed. Absorbance of each well was determined by a microplate reader (Synergy H4, Bio-Tek) at a 570 nm wavelength. The inhibition rates of proliferation were calculated with the following equation:Inhibition ratio (%) = (ODDMSO−ODcompd)/(ODDMSO−ODblank) × 100
Data set [3] concerns RBE cell lines. The data set is described as follows: Cell cycle analysis (PI staining, flow cytometry). Particulars: 1 μM. The data set is classed as cell-based, human. On the procedure:
The experimental cells RBE were cultured and collected when the cells were in good growth state. After digesting with 0.25% trypsin (Beyotime), the cells were collected and centrifuged. The cells were inoculated in petri dishes (Φ = 6 cm) with an inoculation density of 500,000 cells per dish and 3 mL medium per dish. The cells were placed in the incubator, changed to serum-free RPMI 1640 medium after 12 h, left to continue to culture for 12 h, and then compounds were added. Compounds groups with the concentration of 1 μM and control group treated with DMSO were set. The original culture medium was removed, and the compounds were added. After incubation for 16h, the cells were collected and centrifuged at 1000 r for 5 min. The cells were rinsed twice with PBS, and the supernatant was removed by centrifugation. 75% ethanol (1 mL) was added and placed in a refrigerator at −20 °C overnight for cell fixation.
The fixed cells were centrifuged at 2000 r for 5 min, the supernatant was discarded, 1 mL of PBS solution was added, and the supernatant was resuspended and discarded. 0.5 mL of PI staining solution was added to each tube (staining buffer: 20 × PI staining solution: 50 × RNase A = 100:5:2) and stored at room temperature for 30 min in the dark for testing on the flow cytometry.

The test system of data set [4] is Cyclin B1, PARP and Caspase-3 in RBE cell lines. The experiment in a line: Western blot analysis of cell-cycle- and apoptosis-related proteins. Type of data set: cell-based, human. Particulars: 1 and 4 μM. Here is the method: Approximately 2 × 10^5 cells of RBE were seeded in 6-well plates. After treated with compound 3 (1 and 4 μM) for 24 h, cells were lysed with ice-cold RIPA lysis buffer (Beyotime, Shanghai, China) for 30 min and then centrifuged at 12,000 rpm for 10 min at 4 °C. The total protein concentration was determined by BCA protein assay kit (Beyotime, Shanghai, China). Equal amounts (20 μg per load) of protein samples were subjected to 12% SDS-PAGE gel and transferred onto polyvinylidene fluoride (PVDF) membranes (Epizyme Biotech, Shanghai, China), which were then blocked with 5% bovine serum albumin (Ebsdorfelgrund, Hesse, Germany) for 1.5 h and reacted with primary antibodies (1: 1000 diluted) at 4 °C overnight. Subsequently, the PVDF membranes were incubated in the secondary antibody (1: 10,000 diluted) for 2 h at room temperature. ECL chemiluminescent solution was used for color rendering. The antibodies against Cyclin B1, Caspase 3, and PARP were purchased from Cell Signaling Technology. The secondary antibodies conjugated with horseradish peroxidase (HRP) were from AoWei Biology and CST. The protein bands were developed by the chemiluminescent reagents (Meilunbio, Shanghai, China).
For orientation: Immunoblotting shows a protein as a band on a membrane.

`Cc1c(Cc2ccc(C#N)cc2)c(=O)oc2cc(OCCN3CC([N+](=O)[O-])([N+](=O)[O-])C3)ccc12`: the melting point fell in the range of 122.5 to 124.1 °C.

As to `Cc1c(Cc2ccc(C#N)cc2)c(=O)oc2cc(OCCCCN3CC([N+](=O)[O-])([N+](=O)[O-])C3)ccc12`, the melting point fell in the range of 135.1 to 136.3 °C.

On to `Cc1c(Cc2ccc(F)cc2)c(=O)oc2cc(OCCN3CC([N+](=O)[O-])([N+](=O)[O-])C3)ccc12`, for which the melting point was 137.9 to 139.2 °C. `Cc1c(Cc2ccc(F)cc2)c(=O)oc2cc(OCCCCN3CC([N+](=O)[O-])([N+](=O)[O-])C3)ccc12` yielded a melting point of 113.3 to 115.1 °C. As to `Cc1c(Cc2ccccc2)c(=O)oc2cc(OCCN3CC([N+](=O)[O-])([N+](=O)[O-])C3)ccc12`, the melting point lay in the range of 173 to 175 °C.

Compound `Cc1c(Cc2ccccc2)c(=O)oc2cc(OCCCN3CC([N+](=O)[O-])([N+](=O)[O-])C3)ccc12` showed a melting point of 115.1 to 116.8 °C. `Cc1cc(=O)oc2cc(OCCN3CC([N+](=O)[O-])([N+](=O)[O-])C3)ccc12` yielded a melting point of 91 to 93 °C. The same measure, in the same setting: the value for `Cc1cc(=O)oc2cc(OCCCN3CC([N+](=O)[O-])([N+](=O)[O-])C3)ccc12` was 78.5 to 79.6 °C; that for `Cc1cc(=O)oc2cc(OCCOCC(=O)N3CC([N+](=O)[O-])([N+](=O)[O-])C3)ccc12` was 82.5 to 84.5 °C. The compound `Cc1c(Cc2ccc(C(F)(F)F)cc2)c(=O)oc2cc(OCCN3CC([N+](=O)[O-])([N+](=O)[O-])C3)ccc12` had a melting point of 98 to 99.8 °C. In the case of `Cc1c(Cc2ccc(C(F)(F)F)cc2)c(=O)oc2cc(OCCOCC(=O)N3CC([N+](=O)[O-])([N+](=O)[O-])C3)ccc12` [Compound 2, 7-(2-(2-(3,3-Dinitroazetidin-1-yl)-2-oxoethoxy)ethoxy)-4-methyl-3-(4-(trifluoromethyl)benzyl)-2H-chromen-2-one], the melting point was in the range of 65.3 to 67 °C. Besides, the “MFI (fold of RRx-001), intracellular NO” value in data set [1] is 0.95 fold of RRx-001. The IC50 in data set [2] worked out at 1110 nM. `Cc1c(Cc2ccc(C#N)cc2)c(=O)oc2cc(OCCOCC(=O)N3CC([N+](=O)[O-])([N+](=O)[O-])C3)ccc12` [Compound 3, 4-((7-(2-(2-(3,3-Dinitroazetidin-1-yl)-2-oxoethoxy)ethoxy)-4-methyl-2-oxo-2H-chromen-3-yl)methyl)benzonitrile] registered a melting point of 74.9 to 76.3 °C. Also, the “MFI (fold of RRx-001), intracellular NO” value in data set [1] was 1.36 fold of RRx-001. Moreover, the “NO release level in RBE cells (in words)” value in data set [1] (compared to RRx-001) is on record as “highest NO release concentration”. Further, in data set [3], the “cell cycle effect (in words)” value is “arrest the cell cycle at G2/M phase”. Also, the “mean percentage of cells in the G2/M phase” value in data set [3] (DMSO control 18%) came to 23%. In data set [4], the “expression of PARP, Caspase-3 and Cyclin B1 (Western blotting)” value is recorded as “downregulated”. In data set [2], the IC50 came to 950 nM. Consider `Cc1c(Cc2ccc(F)cc2)c(=O)oc2cc(OCCOCC(=O)N3CC([N+](=O)[O-])([N+](=O)[O-])C3)ccc12` [Compound 4, 7-(2-(2-(3,3-Dinitroazetidin-1-yl)-2-oxoethoxy)ethoxy)-3-(4-fluorobenzyl)-4-methyl-2H-chromen-2-one], for which the melting point lay in the range of 70 to 71.9 °C. Also, the “MFI (fold of RRx-001), intracellular NO” value in data set [1] was 0.86 fold of RRx-001. Further, the IC50 in data set [2] was 890 nM. `Cc1c(Cc2ccccc2)c(=O)oc2cc(OCCOCC(=O)N3CC([N+](=O)[O-])([N+](=O)[O-])C3)ccc12` [Compound 5, 3-Benzyl-7-(2-(2-(3,3-dinitroazetidin-1-yl)-2-oxoethoxy)ethoxy)-4-methyl-2H-chromen-2-one] displayed a melting point of 82.5 to 84.5 °C. In addition, in data set [1], the “MFI (fold of RRx-001), intracellular NO” value is 0.83 fold of RRx-001. In addition, the IC50 in data set [2] amounted to 710 nM. The matching figures for `Cc1cc(=O)oc2cc(OCCCCN3CC([N+](=O)[O-])([N+](=O)[O-])C3)ccc12` [Compound 21, 7-(4-(3,3-Dinitroazetidin-1-yl)butoxy)-4-methyl-2H-chromen-2-one]: 85.8 to 87.2 °C, 1.13 fold of RRx-001 and 1090 nM.

As for `O=C(CBr)N1CC([N+](=O)[O-])([N+](=O)[O-])C1` [RRx-001, reference compound], in data set [1], the “MFI (fold of RRx-001), intracellular NO” value is reported as 1 fold of RRx-001. For the same compound, the IC50 in data set [2] amounted to 2000 nM.
